Data set [1] concerns CT26. Briefly: Antitumor activity against mouse CT26 cells xenografted in BALB/c mouse assessed as tumor growth inhibition at 10 to 30 mg/kg, ip QD and measured upto 9 days. The data set is classed as functional, organism-based. Particulars: dose 10-30 mg/kg, time <= 9.0 day.
Data set [2] deals with HEK293. Kind of data set: Induction of apoptosis in Wnt-independent human HEK293 cells assessed as necrotic cells at 10 uM incubated for 24 hrs by Annexin V-Alexa Fluor 647/PI staining based flow cytomtery (Rvb=1.82%). Format: functional.
The subject of data set [3] is HEK293. Kind of data set: Induction of apoptosis in Wnt-independent human HEK293 cells assessed as late apoptotic cells at 10 uM incubated for 24 hrs by Annexin V-Alexa Fluor 647/PI staining based flow cytomtery (Rvb=10.5%). Format: functional.
The next data set concerns HCT-116. Briefly: Induction of apoptosis in Wnt-dependent human HCT-116 cells assessed as viable cells at 10 uM incubated for 24 hrs by Annexin V-Alexa Fluor 647/PI staining based flow cytomtery (Rvb=69.5%). The data set is classed as functional. As to conditions: read-out: Activity.
The subject of data set [4] is CT26. Kind of data set: Induction of apoptosis in Wnt-dependent mouse CT26 cells assessed as late apoptotic cells at 10 uM incubated for 24 hrs by Annexin V-Alexa Fluor 647/PI staining based flow cytomtery (Rvb=9.96%). The data set is classed as functional.
For data set [5], the system named is CT26. Kind of data set: Induction of apoptosis in Wnt-dependent mouse CT26 cells assessed as early apoptotic cells at 20 uM incubated for 24 hrs by Annexin V-Alexa Fluor 647/PI staining based flow cytomtery (Rvb=18.3%). Format: functional.
Data set [6] in a line: Tmax in Sprague-Dawley rat at 21 mg/kg, ip and measured upto 24 hrs by LC-MS analysis. The data set is classed as ADME, organism-based. Particulars: in vivo.
The nature of data set [7]: Toxicity in BALB/c mouse xenografted with mouse CT26 cells assessed as pathological changes in spleen at 30 mg/kg, ip QD by hematoxylin and eosin staining based microscopic analysis. The data set is classed as organism-based. Particulars: in vivo.
A short description of data set [8]: Half life in Sprague-Dawley rat at 21 mg/kg, ip and measured upto 24 hrs by LC-MS analysis. Format: ADME, organism-based. Particulars: in vivo.
Data set [9] can be described thus: Toxicity in BALB/c mouse xenografted with mouse CT26 cells assessed as pathological changes in heart at 30 mg/kg, ip QD in presence of anti-PD-1 antibody cotreatment at 10 mg/kg,ip BIW by hematoxylin and eosin staining based microscopic analysis. As to conditions: in vivo. The data set is classed as organism-based.
Data set [10] concerns the target T1, beta-catenin-B-cell lymphoma 9 protein complex (Homo sapiens, UniProt P35222).
T1 sequence (P35222 whole entry): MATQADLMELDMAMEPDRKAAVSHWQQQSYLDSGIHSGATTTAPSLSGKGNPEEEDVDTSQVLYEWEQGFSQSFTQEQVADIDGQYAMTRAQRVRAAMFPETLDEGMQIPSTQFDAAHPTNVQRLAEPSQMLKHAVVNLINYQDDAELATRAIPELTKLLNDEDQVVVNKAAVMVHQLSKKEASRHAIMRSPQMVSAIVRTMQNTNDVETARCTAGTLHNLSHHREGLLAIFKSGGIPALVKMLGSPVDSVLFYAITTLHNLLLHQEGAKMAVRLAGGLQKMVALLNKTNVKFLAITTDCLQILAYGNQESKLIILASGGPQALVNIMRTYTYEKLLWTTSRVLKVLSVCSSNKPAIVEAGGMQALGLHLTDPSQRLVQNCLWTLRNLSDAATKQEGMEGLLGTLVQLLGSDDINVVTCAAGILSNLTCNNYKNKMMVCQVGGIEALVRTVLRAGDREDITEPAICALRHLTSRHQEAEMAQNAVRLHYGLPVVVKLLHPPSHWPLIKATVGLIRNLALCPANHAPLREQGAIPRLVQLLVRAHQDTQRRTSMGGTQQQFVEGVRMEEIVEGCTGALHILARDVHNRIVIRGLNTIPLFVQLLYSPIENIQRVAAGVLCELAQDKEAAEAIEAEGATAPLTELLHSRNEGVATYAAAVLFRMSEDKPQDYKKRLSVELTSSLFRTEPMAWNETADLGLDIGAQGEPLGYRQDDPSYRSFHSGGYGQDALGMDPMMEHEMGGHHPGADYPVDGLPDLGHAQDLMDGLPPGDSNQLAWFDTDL
T1 sequence (O00512 whole entry): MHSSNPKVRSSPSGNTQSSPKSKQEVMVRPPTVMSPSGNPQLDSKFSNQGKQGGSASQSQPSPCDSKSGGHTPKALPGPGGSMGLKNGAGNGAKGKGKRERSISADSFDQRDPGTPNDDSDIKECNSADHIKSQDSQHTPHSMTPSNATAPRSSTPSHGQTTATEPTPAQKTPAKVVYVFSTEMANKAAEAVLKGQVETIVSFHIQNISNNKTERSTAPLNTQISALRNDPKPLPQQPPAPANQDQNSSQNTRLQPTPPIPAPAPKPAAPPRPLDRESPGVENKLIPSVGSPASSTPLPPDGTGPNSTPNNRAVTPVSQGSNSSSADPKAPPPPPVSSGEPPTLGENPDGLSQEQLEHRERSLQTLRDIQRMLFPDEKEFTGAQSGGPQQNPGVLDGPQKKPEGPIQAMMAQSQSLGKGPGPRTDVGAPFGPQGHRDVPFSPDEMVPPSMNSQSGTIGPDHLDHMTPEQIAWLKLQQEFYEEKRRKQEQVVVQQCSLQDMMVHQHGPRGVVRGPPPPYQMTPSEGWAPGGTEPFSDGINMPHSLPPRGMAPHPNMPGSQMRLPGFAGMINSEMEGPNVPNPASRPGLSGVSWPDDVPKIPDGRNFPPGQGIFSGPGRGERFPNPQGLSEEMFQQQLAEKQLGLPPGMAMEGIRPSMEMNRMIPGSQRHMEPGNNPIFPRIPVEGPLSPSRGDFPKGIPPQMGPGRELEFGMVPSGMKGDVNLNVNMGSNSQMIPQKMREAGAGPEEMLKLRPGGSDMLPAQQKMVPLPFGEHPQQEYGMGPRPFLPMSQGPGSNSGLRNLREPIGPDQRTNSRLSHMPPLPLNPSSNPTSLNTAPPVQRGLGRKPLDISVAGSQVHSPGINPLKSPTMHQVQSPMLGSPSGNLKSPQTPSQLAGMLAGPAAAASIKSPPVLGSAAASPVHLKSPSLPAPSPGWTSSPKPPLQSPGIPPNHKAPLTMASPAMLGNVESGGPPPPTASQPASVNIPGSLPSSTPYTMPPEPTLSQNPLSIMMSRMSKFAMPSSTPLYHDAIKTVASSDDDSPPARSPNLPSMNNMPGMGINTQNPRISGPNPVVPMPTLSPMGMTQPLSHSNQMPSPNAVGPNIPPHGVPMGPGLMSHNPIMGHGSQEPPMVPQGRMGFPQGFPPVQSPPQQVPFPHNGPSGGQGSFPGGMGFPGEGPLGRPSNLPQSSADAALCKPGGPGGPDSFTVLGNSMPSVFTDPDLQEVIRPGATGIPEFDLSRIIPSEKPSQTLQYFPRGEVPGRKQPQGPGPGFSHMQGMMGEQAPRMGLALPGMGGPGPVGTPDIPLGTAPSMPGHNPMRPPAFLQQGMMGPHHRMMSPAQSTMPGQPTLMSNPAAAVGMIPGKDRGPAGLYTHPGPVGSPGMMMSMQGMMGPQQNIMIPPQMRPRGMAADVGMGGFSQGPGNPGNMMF
Briefly: Inhibition of beta-catenin/BCL9 protein-protein interaction in Wnt-dependent human SW480 cells assessed as reduction in Axin2 expression level by qRT-PCR assay. The data set is classed as cell-based.

Data on two molecules can be found in ChEMBL document CHEMBL5316313, “Discovery of Novel 3-Phenylpiperidine Derivatives Targeting the β-Catenin/B-Cell Lymphoma 9 Interaction as a Single Agent and in Combination with the Anti-PD-1 Antibody for the Treatment of Colorectal Cancer” (J Med Chem, 2023).

As to `CC(C)c1ccc(-c2cccc(S(=O)(=O)N3CCCC(c4cccc(OC(C)(C)C(=O)NS(=O)(=O)c5ccc(C(F)(F)F)cc5)c4)C3)c2)cc1` (stereo unspecified), the Activity entry with CT26 [1] was “Dose-Dependent Effect”; in the data set on HEK293 [2], 2.28%; with HEK293 [3] it was 14.9%; with CT26 [4] it was 30.2%; in the data set on CT26 [5] it was 28%; in data set [7], “Non-Toxic”. Besides, in data set [9], the Activity entry is “Non-Toxic”. The viability at 10 µM in the data set on HCT-116 is 59.8%. In addition, in data set [6], the Tmax came out at 30 min. In [8], this molecule had a half-life of 69 min.

Consider `O=C1[C@H](Cc2ccc(O)cc2)N2C(=O)CCN(C(=O)NCc3ccccc3)[C@H]2CN1Cc1cccc2ccccc12`, for which, in [10], the IC50 was determined as 10.6 µM.
